We go through 51 compounds from ChEMBL document CHEMBL5308504, “Tm Shift (DSF) assay results for EUbOPEN Chemogenomics Library” (2023).

Where “and” joins values, the source holds several entries; their conditions need not be identical. Equal values may be shown once.

Assay [1] has as its target Fibroblast growth factor receptor 3 (Homo sapiens) (UniProt P22607). As to conditions: Compound concentration 20.0 uM, Protein concentration 2.0 uM, Result type QC Liability.
Description: Thermal Shift Assay. Domain: start/stop: P449-E759
Assay [2] has as its target T1, Peregrin (Homo sapiens) (UniProt P55201).
T1 sequence (whole entry): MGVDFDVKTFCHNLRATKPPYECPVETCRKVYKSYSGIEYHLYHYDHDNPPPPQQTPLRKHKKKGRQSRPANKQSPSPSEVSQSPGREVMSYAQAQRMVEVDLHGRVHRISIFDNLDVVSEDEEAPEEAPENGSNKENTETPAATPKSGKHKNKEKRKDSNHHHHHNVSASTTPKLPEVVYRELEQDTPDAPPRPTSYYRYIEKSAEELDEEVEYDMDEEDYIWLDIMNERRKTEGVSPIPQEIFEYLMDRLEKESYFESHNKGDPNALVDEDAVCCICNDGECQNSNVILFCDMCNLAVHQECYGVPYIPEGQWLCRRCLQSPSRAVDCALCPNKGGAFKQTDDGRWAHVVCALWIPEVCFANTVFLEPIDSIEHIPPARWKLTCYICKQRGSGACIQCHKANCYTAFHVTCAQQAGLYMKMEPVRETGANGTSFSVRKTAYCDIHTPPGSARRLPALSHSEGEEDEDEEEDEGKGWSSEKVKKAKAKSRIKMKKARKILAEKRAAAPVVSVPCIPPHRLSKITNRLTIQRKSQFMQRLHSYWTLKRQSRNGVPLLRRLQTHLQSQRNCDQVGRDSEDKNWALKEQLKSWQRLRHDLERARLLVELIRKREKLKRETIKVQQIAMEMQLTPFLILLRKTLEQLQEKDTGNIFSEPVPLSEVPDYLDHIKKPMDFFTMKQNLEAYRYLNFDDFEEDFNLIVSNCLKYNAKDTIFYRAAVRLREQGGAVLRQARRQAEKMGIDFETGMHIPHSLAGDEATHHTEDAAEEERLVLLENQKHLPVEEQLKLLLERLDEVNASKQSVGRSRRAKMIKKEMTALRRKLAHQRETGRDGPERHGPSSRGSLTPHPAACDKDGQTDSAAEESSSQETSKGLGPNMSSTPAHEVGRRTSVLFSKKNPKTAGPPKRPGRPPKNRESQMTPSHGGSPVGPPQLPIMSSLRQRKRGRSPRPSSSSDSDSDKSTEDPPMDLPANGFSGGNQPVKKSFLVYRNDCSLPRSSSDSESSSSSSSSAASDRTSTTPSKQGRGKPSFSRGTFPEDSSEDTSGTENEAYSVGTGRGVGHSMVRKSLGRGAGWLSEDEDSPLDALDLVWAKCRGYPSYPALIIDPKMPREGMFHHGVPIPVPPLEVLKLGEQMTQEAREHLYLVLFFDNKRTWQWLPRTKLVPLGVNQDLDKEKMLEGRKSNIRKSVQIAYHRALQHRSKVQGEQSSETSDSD
The note with it: Compound concentration 20.0 uM, Protein concentration 2.0 uM, Result type QC Liability.

Chain of Fibroblast growth factor receptor 3 (Homo sapiens) (P22607 23-806 limits assumed): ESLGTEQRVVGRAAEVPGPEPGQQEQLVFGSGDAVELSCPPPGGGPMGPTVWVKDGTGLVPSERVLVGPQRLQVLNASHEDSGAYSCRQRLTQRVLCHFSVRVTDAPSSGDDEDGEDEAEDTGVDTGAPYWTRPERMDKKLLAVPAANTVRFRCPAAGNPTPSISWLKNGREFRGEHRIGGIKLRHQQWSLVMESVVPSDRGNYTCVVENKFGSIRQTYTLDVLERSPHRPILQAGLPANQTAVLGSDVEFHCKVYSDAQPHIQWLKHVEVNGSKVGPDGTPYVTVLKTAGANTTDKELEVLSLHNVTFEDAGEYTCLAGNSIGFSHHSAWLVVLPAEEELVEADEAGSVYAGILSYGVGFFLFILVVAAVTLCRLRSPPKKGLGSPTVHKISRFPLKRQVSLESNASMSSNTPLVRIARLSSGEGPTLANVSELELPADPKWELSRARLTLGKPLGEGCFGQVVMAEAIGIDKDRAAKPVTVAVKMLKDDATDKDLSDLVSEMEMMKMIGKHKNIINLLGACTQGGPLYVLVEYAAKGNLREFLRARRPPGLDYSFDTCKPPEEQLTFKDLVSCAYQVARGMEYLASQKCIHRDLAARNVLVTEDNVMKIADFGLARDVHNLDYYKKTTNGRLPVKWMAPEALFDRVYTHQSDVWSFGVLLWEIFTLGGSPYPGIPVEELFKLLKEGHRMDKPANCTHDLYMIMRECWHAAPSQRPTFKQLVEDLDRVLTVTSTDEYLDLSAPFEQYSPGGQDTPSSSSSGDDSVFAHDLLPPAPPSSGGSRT

With `O=C(O)c1ccc(CN2C[C@@H]3C[C@H]2CN3Cc2ccc(Oc3ccc(-c4ncco4)cc3)cc2)cc1`, the ΔTm (as a rule, the shift of the melting midpoint relative to a reference) in assay [1] was 0.44 °C; in assay [2] it was -2.16 °C.

On to `Fc1ccc(-c2nc(-c3ccc4ccccc4c3F)[nH]c2-c2ccncc2)cc1`, for which the shift in melting temperature (ΔTm) was 1.19 °C in assay [1] and 0.17 °C in assay [2].

In the case of `CNS(=O)(=O)c1ccc(N(C)C)c(Nc2ncnc3cc(OC)c(OC)cc23)c1`, the ΔTm in assay [1] was 0.55 °C; in assay [2] it was -0.25 °C.

`CCC(F)(F)c1cc(N2CCC(S(C)(=O)=O)CC2)nc2sc(C(N)=O)c(N)c12`: the shift in melting temperature (ΔTm) in assay [1] was 0.83 °C and 0.75 °C and 1.17 °C; in assay [2], -2.52 °C and -1.37 °C and -0.65 °C.

As to `CC(=O)c1c(C)c2cnc(Nc3ccc(N4CCNCC4)cn3)nc2n(C2CCCC2)c1=O`, the ΔTm in assay [1] was 0.56 °C and 0.64 °C; in assay [2], -1.97 °C and -1.31 °C.

Turning to `COc1cc(C(=O)NCCOCCOCCOCCC(=O)Nc2cccc3c2C(=O)N(C2CCC(=O)NC2=O)C3=O)ccc1Nc1ncc(C(F)(F)F)c(Oc2cccc3c2C(=O)CC3)n1` (configuration not stated), the ΔTm in assay [1] was -3.01 °C; in assay [2] it was -2.32 °C.

`Cc1c(CCC(=O)O)cccc1NC(=O)[C@@H](c1ccc(-c2cncc(Cl)c2)c(F)c1)C1CCCC1`: the results for the ΔTm in assay [1] and in assay [2] were 0.03 °C and -4.03 °C, respectively.

For the compound `Cc1cc2nc(N3CCC(C(=O)NC4CCCC4)CC3)n(C(C)C)c2cc1C`, the ΔTm was 0.35 °C in assay [1] and -3.41 °C in assay [2].

In the case of `Nc1ncc2c(n1)-c1c([nH]c3ccc(C4=CCOCC4)cc13)CCC2`, the ΔTm in assay [1] is 1.34 °C; in assay [2], -2.26 °C.

With `CN[C@@H]1CC[C@@H](c2ccc(Cl)c(Cl)c2)c2ccccc21`, the values for the ΔTm in assay [1] and in assay [2] were 0.61 °C and -1.62 °C, respectively.

Consider `CC(=O)c1c(C)c2cnc(Nc3ccc(N4CCN(CCCCNC(=O)COc5cccc6c5C(=O)N(C5CCC(=O)NC5=O)C6=O)CC4)cn3)nc2n(C2CCCC2)c1=O` (configuration not stated), for which the ΔTm in assay [1] was 0.48 °C; in assay [2], -1.22 °C.

For `O=C(Nc1ccc(Cl)c(-c2ccccn2)c1)c1cccc(COc2ccc(Br)cc2CNCCO)c1`, the ΔTm in assay [1] is 0.69 °C; in assay [2] it was -0.98 °C.

`COc1cc(C(=O)NC2CCN(C)CC2)ccc1Nc1ncc(C(F)(F)F)c(NCc2ccc(C)cc2N(C)S(C)(=O)=O)n1`: the figures for the ΔTm in assay [1] and in assay [2] were 2.55 °C and -1.4 °C, respectively.

`COc1ccccc1S(=O)(=O)Nc1ccc2c(c1)CN(C)C(=O)N2`: the ΔTm was determined as 0.61 °C in assay [1] and 1.73 °C in assay [2].

With `CCc1nc(C2CCC2)n2nc(-c3ccccc3)[nH]c(=O)c12`, the ΔTm was 0.69 °C in assay [1] and -2.47 °C in assay [2].

For `Cc1c(NC(=O)COc2ccc(Cl)cc2C(=O)c2cc(F)cc(C(F)(F)F)c2)ccc(C(=O)O)c1F`, the ΔTm is 0.45 °C and 3.99 °C in assay [1]; -2.51 °C and -1.17 °C in assay [2].

In the case of `Cc1c(CN2CCC3(CC2)CN(c2ncnc4sc(CC(F)(F)F)cc24)C3)ccc2c1cc(C#N)n2CC(N)=O`, the ΔTm in assay [1] was 0.67 °C; in assay [2], -1.41 °C.

`CNC(=O)c1cc(C(=O)NC2CC2)cn(Cc2ccccc2)c1=O`: the ΔTm is 0.5 °C in assay [1] and -0.87 °C in assay [2].

In the case of `N=C(N)NCCC[C@H](NC(=O)C(c1ccccc1)c1ccccc1)C(=O)NCc1ccc(CNC(N)=O)cc1`, the figures for the ΔTm in assay [1] and in assay [2] were 0.81 °C and -1.9 °C, respectively.

For `CCCCc1oc2ccccc2c1C(=O)c1cc(I)c(OCCN(CC)CC)c(I)c1`, the ΔTm is 0.79 °C in assay [1] and -1.31 °C in assay [2].

Consider `COc1cc(N[C@@H]2CCCC[C@]2(O)C(F)(F)F)ccc1F`, for which the values for the ΔTm in assay [1] and in assay [2] were 0.65 °C and -1.55 °C, respectively.

For `CC(C)(O)[C@H](F)CN1Cc2cc(NC(=O)c3cnn4cccnc34)c(N3CCOCC3)cc2C1=O`, the values for the ΔTm in assay [1] and in assay [2] were 2.76 °C and -1.78 °C, respectively.

Regarding `CCCCCCCC/C=C\CCCCCCCC(=O)NCCO`, the ΔTm in assay [1] was 1.23 °C; in assay [2] it was -0.91 °C.

With `O=C(O)c1cc(F)c2nc(N3[C@@H]4CC[C@H]3C[C@@H](OCc3c(-c5ccccc5OC(F)(F)F)noc3C3CC3)C4)sc2c1`, the figures for the ΔTm in assay [1] and in assay [2] were -3.83 °C and -2.96 °C, respectively.

Turning to `CC[C@H](CO)Nc1nc(Nc2cccc(-c3ccccn3)c2)c2ncn(C(C)C)c2n1`, the ΔTm is 2.78 °C in assay [1] and -2.18 °C in assay [2].

With `N#Cc1c(SCc2csc(-c3ccc(Cl)cc3)n2)nc(N2CCCC2)c(C#N)c1-c1ccc(OCCO)cc1`, the ΔTm in assay [1] was 1.06 °C; in assay [2], -3.79 °C.

On to `c1ccc(C(OC2CCN(CCCc3nnn[nH]3)CC2)c2ccccc2)cc1`, for which the ΔTm was 0.52 °C in assay [1] and -2.95 °C in assay [2].

For the compound `COc1ccc(CC[C@@H](OC(=O)[C@H]2CCCCN2C(=O)[C@@H](c2cc(OC)c(OC)c(OC)c2)C2CCCCC2)c2cccc(OCCN3CCOCC3)c2)cc1OC`, the ΔTm in assay [1] is -3.96 °C; in assay [2], -4.81 °C.

For `Cc1cc(-c2cc3ncccc3c(OC[C@H]3CCCNC3)n2)ccc1N(C)C`, the ΔTm in assay [1] was 3.21 °C; in assay [2], -1.71 °C.

Regarding `CCC(=O)N[C@@H]1CC[C@H](C(=O)N(C)c2ccc(-c3nc4ccccc4o3)cc2)C1`, the ΔTm in assay [1] was 0.71 °C; in assay [2] it was -1.58 °C.

In the case of `Cn1cc(-c2cnc3ccc4ccc(CS(=O)(=O)NCc5ccccn5)cc4c(=O)c3c2)cn1`, the figures for the ΔTm in assay [1] and in assay [2] were 3.77 °C and -1.66 °C, respectively.

For the compound `Cc1cc(CN)cc(C)c1-c1ncn(C)c1-c1cncn1C`, the thermal shift (ΔTm) in assay [1] is 0.44 °C; in assay [2] it was -1.81 °C.

With `C=C1/C(=C\C=C2/CCC[C@]3(C)[C@@H]([C@H](C)CCCC(C)(C)O)CC[C@@H]23)C[C@@H](O)C[C@@H]1O`, the ΔTm was 1.25 °C in assay [1] and -2.59 °C in assay [2].

For the compound `NCC1CCC(CNc2nc(NCc3ccccc3OC(F)(F)F)ncc2[N+](=O)[O-])CC1` (configuration not stated), the thermal shift (ΔTm) came to 0.5 °C in assay [1] and 0.06 °C in assay [2].

With `COP(=O)(CCC(N)C(=O)O)Oc1cccc(CC(=O)O)c1` (configuration not stated), the figures for the ΔTm in assay [1] and in assay [2] were 0.51 °C and -1.49 °C, respectively.

With `C=C(F)C(=O)N1CCN(c2nc(OC[C@@H]3CCCN3C)nc3c2CCN(c2cccc4cccc(Cl)c24)C3)C[C@@H]1CC#N`, the ΔTm in assay [1] was 0.12 °C; in assay [2], -3.96 °C.

In the case of `CCNC1=N[C@@H]2[C@@H](O)[C@H](O)[C@@H](CO)O[C@@H]2S1`, the ΔTm in assay [1] worked out at 0.73 °C; in assay [2], 0.02 °C.

As to `O=C(NCc1ccc(F)cc1)C1CCN(S(=O)(=O)c2cc(Cl)cc(Cl)c2)CC1`, the results for the shift in melting temperature (ΔTm) in assay [1] and in assay [2] were 0.9 °C and -1.81 °C, respectively.

For `COc1cc(C(=O)O)ncc1C#Cc1ccccc1NS(=O)(=O)c1cccc2c(N(C)C)ccnc12`, the ΔTm in assay [1] was 0.5 °C; in assay [2] it was -0.45 °C.

On to `CCO[C@@H](Cc1ccc(OCCc2ccc(OS(C)(=O)=O)cc2)cc1)C(=O)O`, for which the shift in melting temperature (ΔTm) is 0.52 °C in assay [1] and -1.83 °C in assay [2].

As for `COC[C@@H](C)N[C@H]1CC[C@H](Nc2cc(-c3cccc(NCC4(C#N)CCOCC4)n3)c(Cl)cn2)CC1`, the ΔTm is 0.39 °C in assay [1] and -1.02 °C in assay [2].

`CC(C)Oc1ccc(Cc2ccc(NC3=NCCN3)cc2)cc1`: the ΔTm in assay [1] was 0.39 °C; in assay [2], -3.24 °C.

With `CS(C)(=O)=Nc1ccc(-c2ccc(-c3nc4[nH]c(O[C@@H]5CO[C@H]6[C@@H]5OC[C@H]6O)nc4cc3Cl)cc2)cc1`, the ΔTm is 0.49 °C in assay [1] and -3.2 °C in assay [2].

Take `Cc1ccc(NS(=O)(=O)c2ccc3c(c2)C2C=CCC2C(c2ccc(C(=O)O)cc2)N3)cc1C` (configuration not stated): the ΔTm in assay [1] was 0.11 °C; in assay [2] it was -0.5 °C.

As for `C[C@@H](COCCC(=O)N1CCN(c2ncc(C(F)(F)F)cn2)CC1)Nc1cn[nH]c(=O)c1C(F)(F)F`, the ΔTm was 0.48 °C in assay [1] and -0.15 °C in assay [2].

As to `CCCCCNC(=O)N1CCC(CN(Cc2ccc(Cl)cc2)Cc2ccc([N+](=O)[O-])s2)C1` (configuration not stated), the ΔTm in assay [1] was 0.77 °C; in assay [2], -0.19 °C.

Turning to `Cc1ccccc1Oc1cc(-n2c(=O)cc(C(F)(F)F)[nH]c2=O)c2ccccc2c1Cl`, the ΔTm in assay [1] was 0.76 °C; in assay [2], -1.36 °C.

Consider `Oc1c(CN2CCCC2)cc(COCc2ccccc2)c2cccnc12`, for which the ΔTm is 0.61 °C in assay [1] and -2.08 °C in assay [2].

As for `O=C(N[C@H](Cc1ccccc1)C(=O)O)c1cccc(OCc2cccnc2)c1`, the results for the ΔTm in assay [1] and in assay [2] were 0.53 °C and -2.18 °C, respectively.

With `COc1cc2ncnc(Nc3cccc(O)c3)c2cc1OC`, the ΔTm in assay [1] was 2.74 °C; in assay [2], -1.59 °C.

Regarding `CN(C)CC#Cc1ccc2[nH]c3c(c2c1)-c1nc(N)ncc1CCC3`, the values for the thermal shift (ΔTm) in assay [1] and in assay [2] were 3.51 °C and -0.87 °C, respectively.
